Columns and labels:
Conditions in all cases: biotinylated peptide 0 to 200 µg.mL, streptavidin-HRP detection
[1] = test system: BBI
Description: (§1) The C-terminus was elongated with a GGGS-CONH2 tail to mimic the GGGS-peptide spacer between the random peptide sequence and the phage protein pIII and to block the negative charge of the carboxyl terminus. […] All synthetic peptides were reconstituted in sterile deionised H2O to a concentration of 2 mg/mL. The ability of biotinylated synthetic peptides (from 0 to 200 µg.mL) to bind to the immobilized purified Bowman-Birk inhibitor, soy pulp and soy whey extracts (and BSA as a negative control) was analyzed in solid phase assays. In this case, the biotinylated synthetic peptides were incubated on BBI coated wells (100 µg.mL) and detected using a streptavidin-HRP conjugate (1:500). Binding and absorbance readings are finally carried out using the TMB substrate as described before.

[2] = test system: soy pulp
Description: as §1

[3] = test system: soy whey
Description: as §1

GAMHLPWHMGTLGGGS-1,2-diaminoethane-biotin [peptide 1]
Dose-dependent binding: binding to BBI [1] | binding to soy pulp [2] | binding to soy whey [3]
